In general, IC50 refers to the midpoint of a concentration-inhibition curve.

The assay relates to Mycobacterium tuberculosis variant bovis. The experiment in a line: Antibacterial activity against Mycobacterium bovis BCG assessed as reduction in bacterial growth. It is filed as functional, organism-based.
As to `Fc1ccc2c(NCCc3ccc(OC(F)(F)F)cc3)ncnc2c1`, the IC50 worked out at 800 nM.

As to `CC(C)(C)c1ccc(CCNc2ncnc3ccccc23)cc1`, the IC50 stood at 800 nM.

`CC(C)(C)c1ccc(CCNc2ncnc3ccsc23)cc1`: the IC50 was determined as 5800 nM.

Source of the values: ChEMBL document CHEMBL5344478, “Cytochrome bd oxidase: an emerging anti-tubercular drug target” (RSC Med Chem, 2024).
